Test results published in US20260325533A1, “CDK INHIBITOR COMPOUNDS” (ALEKSIA THERAPEUTICS, INC., priority 2023, published 2026).
Read-outs that look alike come from different tables or passages of the source.

Assays:
Format in all cases: biochemical
CDK2/CCNE1 = CDK2/CCNE1 (Homo sapiens, UniProt P24941); test: CDK2 homogeneous time-resolved fluorescence (HTRF) kinase assay; conditions: CDK2/CCNE
Outline: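 An HTRF format measures CDK2/CCNE1 (3 nM) phosphorylating a 4E-BP1 Thr37/46 peptide at high (1 mM) ATP. Reactions run one hour at 23 °C, then EDTA-quenched and probed with Eu-labelled phospho-specific antibody.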

CDK1/CCNB1 = CDK1/CCNB1 (Homo sapiens, UniProt P06493); test: CDK1 homogeneous time-resolved fluorescence (HTRF) kinase assay; conditions: CDK1/CCNB; x = IC50 >250 nM; read-out: CDK1/CCNB IC50 (>250 nM column)
CDK1/CCNB1, sequence (P06493 whole entry): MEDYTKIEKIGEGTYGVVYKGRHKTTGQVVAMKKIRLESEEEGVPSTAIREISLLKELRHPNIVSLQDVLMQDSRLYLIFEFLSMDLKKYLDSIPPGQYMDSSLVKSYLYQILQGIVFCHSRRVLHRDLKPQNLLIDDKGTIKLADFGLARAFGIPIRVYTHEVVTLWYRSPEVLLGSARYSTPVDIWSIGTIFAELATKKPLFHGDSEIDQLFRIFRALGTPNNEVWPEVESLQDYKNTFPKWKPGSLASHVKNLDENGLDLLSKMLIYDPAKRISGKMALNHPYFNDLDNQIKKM
CDK1/CCNB1, sequence (P14635 whole entry partner): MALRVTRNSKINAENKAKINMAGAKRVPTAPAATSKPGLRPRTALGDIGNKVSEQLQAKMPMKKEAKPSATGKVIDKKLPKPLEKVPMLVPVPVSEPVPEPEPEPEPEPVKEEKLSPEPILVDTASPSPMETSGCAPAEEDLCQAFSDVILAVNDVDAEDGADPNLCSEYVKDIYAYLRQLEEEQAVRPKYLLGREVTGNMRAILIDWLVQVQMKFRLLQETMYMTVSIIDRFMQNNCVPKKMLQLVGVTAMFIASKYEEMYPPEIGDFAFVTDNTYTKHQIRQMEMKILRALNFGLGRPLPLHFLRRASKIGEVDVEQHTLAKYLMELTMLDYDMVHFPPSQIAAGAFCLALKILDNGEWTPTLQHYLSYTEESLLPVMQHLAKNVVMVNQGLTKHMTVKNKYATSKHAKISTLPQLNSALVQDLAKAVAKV
Outline: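 High-ATP (1 mM) HTRF assay with 0.5 nM CDK1/cyclin B1 and 50 nM ULight-4E-BP1 (Thr37/46) substrate, 60 min at 23 °C after 20-min compound preincubation. IC50 values come from dose-response curves.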

CDK6/CCND1 = CDK6/CCND1 (Homo sapiens, UniProt Q00534); test: CDK6 homogeneous time-resolved fluorescence (HTRF) kinase assay; conditions: CDK6/CCND; x = IC50 >250 nM; read-out: CDK6/CCND IC50 (>250 nM column)
CDK6/CCND1, sequence (Q00534 whole entry): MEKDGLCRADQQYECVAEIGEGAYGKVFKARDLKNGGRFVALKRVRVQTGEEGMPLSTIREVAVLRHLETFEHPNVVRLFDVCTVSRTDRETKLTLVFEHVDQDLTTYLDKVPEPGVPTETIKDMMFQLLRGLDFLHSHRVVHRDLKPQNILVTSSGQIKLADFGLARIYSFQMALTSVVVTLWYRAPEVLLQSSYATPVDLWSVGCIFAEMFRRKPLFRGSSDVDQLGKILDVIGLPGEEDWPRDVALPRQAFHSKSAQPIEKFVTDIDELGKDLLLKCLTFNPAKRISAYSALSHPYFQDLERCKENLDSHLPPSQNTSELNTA
CDK6/CCND1, sequence (P24385 whole entry partner): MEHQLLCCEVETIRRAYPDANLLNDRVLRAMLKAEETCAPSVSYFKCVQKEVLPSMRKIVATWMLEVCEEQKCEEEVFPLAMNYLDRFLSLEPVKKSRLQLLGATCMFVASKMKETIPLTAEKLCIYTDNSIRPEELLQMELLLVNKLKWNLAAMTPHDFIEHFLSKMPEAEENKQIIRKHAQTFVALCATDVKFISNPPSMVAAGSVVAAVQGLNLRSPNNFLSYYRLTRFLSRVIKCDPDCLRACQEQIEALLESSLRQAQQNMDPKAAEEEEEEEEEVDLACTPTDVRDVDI
Outline: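 Recombinant CDK6/CCND1 (1 nM final) was preincubated with compound for 20 min at 23 °C in HEPES buffer with MgCl2, EGTA, DTT and Tween 20. Kinase reaction then ran 60 min at 23 °C with 1 mM ATP and 50 nM ULight-4E-BP1 (Thr37/46) peptide, and was stopped with EDTA.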

CDK4/CCND3 = CDK4/CCND3 (Homo sapiens, UniProt P11802); test: CDK4 homogeneous time-resolved fluorescence (HTRF) kinase assay; conditions: CDK4/CCND; x = IC50 >250 nM; read-out: CDK4/CCND IC50 (>250 nM column)
CDK4/CCND3, sequence (P11802 whole entry): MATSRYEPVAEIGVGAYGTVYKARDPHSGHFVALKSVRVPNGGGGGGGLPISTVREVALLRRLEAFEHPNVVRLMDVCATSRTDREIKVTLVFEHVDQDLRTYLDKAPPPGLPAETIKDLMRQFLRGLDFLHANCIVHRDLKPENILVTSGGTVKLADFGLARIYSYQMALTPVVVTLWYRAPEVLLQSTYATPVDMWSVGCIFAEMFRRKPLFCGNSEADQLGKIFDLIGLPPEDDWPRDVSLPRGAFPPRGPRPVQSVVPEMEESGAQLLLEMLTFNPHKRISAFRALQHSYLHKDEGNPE
CDK4/CCND3, sequence (P30281 whole entry partner): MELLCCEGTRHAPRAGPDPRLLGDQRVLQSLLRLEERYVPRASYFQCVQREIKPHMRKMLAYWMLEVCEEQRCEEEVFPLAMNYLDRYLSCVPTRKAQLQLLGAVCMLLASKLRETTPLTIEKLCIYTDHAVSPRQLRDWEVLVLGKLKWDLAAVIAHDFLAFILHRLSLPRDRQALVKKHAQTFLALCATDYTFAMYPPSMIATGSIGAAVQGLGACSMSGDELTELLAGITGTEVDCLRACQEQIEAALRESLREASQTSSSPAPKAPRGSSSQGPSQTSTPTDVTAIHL
Outline: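 IC50 values were derived from 11-point half-log dilutions, usually starting at 10 μM. Compound was first held for 20 min at 23 °C with 1.5 nM CDK4/CCND3. 1 mM ATP and 50 nM ULight-eIF4E-BP1 (Thr37/46) substrate were then added for 60 min, and the TR-FRET 665 nm signal was measured after EDTA stop and Eu-anti-phospho-4E-BP1 detection.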

[1] = x = IC50 25-250 nM, read-out: CDK2/CCNE IC50 (25-250 nM)
[2] = x = IC50 <25 nM, read-out: CDK2/CCNE IC50 (<25 nM)

## CS(=O)(=O)c1ccc(Nc2cc3c(C#Cc4cc(F)cnc4N)nccc3cn2)cc1 [Ex 556, 5-((2-amino-5-fluoropyridin-3-yl)ethynyl)-N-(4-(methylsulfonyl)phenyl)-2,6-naphthyridin-3-amine]
CDK2/CCNE1; [1]
  IC50: 25 to 250 nM
CDK1/CCNB1
  IC50: > 250 nM
CDK6/CCND1
  IC50: > 250 nM
CDK4/CCND3
  IC50: > 250 nM

## CS(=O)(=O)c1ccc(Nc2cc3c(C#Cc4cc(N)ncc4F)nccc3cn2)cc1 [Ex 557, 5-((2-amino-5-fluoropyridin-4-yl)ethynyl)-N-(4-(methylsulfonyl)phenyl)-2,6-naphthyridin-3-amine]
CDK2/CCNE1; [2]
  IC50: < 25 nM
CDK1/CCNB1
  IC50: > 250 nM
CDK6/CCND1
  IC50: > 250 nM
CDK4/CCND3
  IC50: > 250 nM

## CS(=O)(=O)c1ccc(Nc2cc3c(C#Cc4ccc(N)nc4Cl)nccc3cn2)cc1 [Ex 558, 5-((6-amino-2-chloropyridin-3-yl)ethynyl)-N-(4-(methylsulfonyl)phenyl)-2,6-naphthyridin-3-amine]
CDK2/CCNE1; [1]
  IC50: 25 to 250 nM
CDK1/CCNB1
  IC50: > 250 nM
CDK6/CCND1
  IC50: > 250 nM
CDK4/CCND3
  IC50: > 250 nM

## CS(=O)(=O)c1ccc(Nc2cc3c(C#Cc4cc(N)n[nH]4)nccc3cn2)cc1 [Ex 559, 5-((3-amino-1H-pyrazol-5-yl)ethynyl)-N-(4-(methylsulfonyl)phenyl)-2,6-naphthyridin-3-amine]
CDK2/CCNE1; [1]
  IC50: 25 to 250 nM
CDK1/CCNB1
  IC50: > 250 nM
CDK6/CCND1
  IC50: > 250 nM
CDK4/CCND3
  IC50: > 250 nM

## CS(=O)(=O)c1ccc(Nc2cc3c(C#Cc4ccc(F)c(O)c4)nccc3cn2)cc1 [Ex 560, 2-fluoro-5-((7-((4-(methylsulfonyl)phenyl)amino)-2,6-naphthyridin-1-yl)ethynyl)phenol]
CDK2/CCNE1; [1]
  IC50: 25 to 250 nM
CDK1/CCNB1
  IC50: > 250 nM
CDK6/CCND1
  IC50: > 250 nM
CDK4/CCND3
  IC50: > 250 nM

## CS(=O)(=O)c1ccc(Nc2cc3c(C#Cc4n[nH]c5ncccc45)nccc3cn2)cc1 [Ex 561, 5-((1H-pyrazolo[3,4-b]pyridin-3-yl)ethynyl)-N-(4-(methylsulfonyl)phenyl)-2,6-naphthyridin-3-amine]
CDK2/CCNE1; [1]
  IC50: 25 to 250 nM
CDK1/CCNB1
  IC50: > 250 nM
CDK6/CCND1
  IC50: > 250 nM
CDK4/CCND3
  IC50: > 250 nM

## CC(C)(O)Cn1ncc2c(C#Cc3nccc4cnc(Nc5ccc(S(C)(=O)=O)cc5)cc34)cncc21 [Ex 562, 2-methyl-1-(4-((7-((4-(methylsulfonyl)phenyl)amino)-2,6-naphthyridin-1-yl)ethynyl)-1H-pyrazolo[3,4-c]pyridin-1-yl)propan-2-ol]
CDK2/CCNE1; [1]
  IC50: 25 to 250 nM
CDK1/CCNB1
  IC50: > 250 nM
CDK6/CCND1
  IC50: > 250 nM
CDK4/CCND3
  IC50: > 250 nM

## CS(=O)(=O)c1ccc(Nc2cc3c(C#Cc4ccc(C(F)(F)F)cc4N)nccc3cn2)cc1 [Ex 563, 5-((2-amino-4-(trifluoromethyl)phenyl)ethynyl)-N-(4-(methylsulfonyl)phenyl)-2,6-naphthyridin-3-amine]
CDK2/CCNE1; [1]
  IC50: 25 to 250 nM
CDK1/CCNB1
  IC50: > 250 nM
CDK6/CCND1
  IC50: > 250 nM
CDK4/CCND3
  IC50: > 250 nM

## Cc1c(C#N)cccc1C#Cc1nccc2cnc(Nc3ccc(S(C)(=O)=O)cc3)cc12 [Ex 564, 2-methyl-3-((7-((4-(methylsulfonyl)phenyl)amino)-2,6-naphthyridin-1-yl)ethynyl)benzonitrile]
CDK2/CCNE1; [1]
  IC50: 25 to 250 nM
CDK1/CCNB1
  IC50: > 250 nM
CDK6/CCND1
  IC50: > 250 nM
CDK4/CCND3
  IC50: > 250 nM

## Cc1ncccc1C#Cc1nccc2cnc(Nc3ccc(S(C)(=O)=O)cc3)cc12 [Ex 565, 5-((2-methylpyridin-3-yl)ethynyl)-N-(4-(methylsulfonyl)phenyl)-2,6-naphthyridin-3-amine]
CDK2/CCNE1; [1]
  IC50: 25 to 250 nM
CDK1/CCNB1
  IC50: > 250 nM
CDK6/CCND1
  IC50: > 250 nM
CDK4/CCND3
  IC50: > 250 nM

## CS(=O)(=O)c1ccc(Nc2cc3c(C#Cc4ccc(N5CCOCC5)nc4)nccc3cn2)cc1 [Ex 566, N-(4-(methylsulfonyl)phenyl)-5-((6-morpholinopyridin-3-yl)ethynyl)-2,6-naphthyridin-3-amine]
CDK2/CCNE1; [1]
  IC50: 25 to 250 nM
CDK1/CCNB1
  IC50: > 250 nM
CDK6/CCND1
  IC50: > 250 nM
CDK4/CCND3
  IC50: > 250 nM

## CS(=O)(=O)c1ccc(Nc2cc3c(C#Cc4ccc(C#N)cc4N)nccc3cn2)cc1 [Ex 567, 3-amino-4-((7-((4-(methylsulfonyl)phenyl)amino)-2,6-naphthyridin-1-yl)ethynyl)benzonitrile]
CDK2/CCNE1; [2]
  IC50: < 25 nM
CDK1/CCNB1
  IC50: > 250 nM
CDK6/CCND1
  IC50: > 250 nM
CDK4/CCND3
  IC50: > 250 nM

## COc1cc(C#Cc2nccc3cnc(Nc4ccc(S(C)(=O)=O)cc4)cc23)ncn1 [Ex 568, 5-((6-methoxypyrimidin-4-yl)ethynyl)-N-(4-(methylsulfonyl)phenyl)-2,6-naphthyridin-3-amine]
CDK2/CCNE1; x = IC50 >250 nM, read-out: CDK2/CCNE IC50 (>250 nM column)
  IC50: > 250 nM
CDK1/CCNB1
  IC50: > 250 nM
CDK6/CCND1
  IC50: > 250 nM
CDK4/CCND3
  IC50: > 250 nM

## CS(=O)(=O)c1ccc(Nc2cc3c(C#Cc4cc(Cl)ncc4N)nccc3cn2)cc1 [Ex 569, 5-((5-amino-2-chloropyridin-4-yl)ethynyl)-N-(4-(methylsulfonyl)phenyl)-2,6-naphthyridin-3-amine]
CDK2/CCNE1; [1]
  IC50: 25 to 250 nM
CDK1/CCNB1
  IC50: > 250 nM
CDK6/CCND1
  IC50: > 250 nM
CDK4/CCND3
  IC50: > 250 nM

## Cc1ccc(C#Cc2nccc3cnc(Nc4ccc(S(C)(=O)=O)cc4)cc23)c(N)c1 [Ex 570, 5-((2-amino-4-methylphenyl)ethynyl)-N-(4-(methylsulfonyl)phenyl)-2,6-naphthyridin-3-amine]
CDK2/CCNE1; [2]
  IC50: < 25 nM
CDK1/CCNB1
  IC50: > 250 nM
CDK6/CCND1
  IC50: > 250 nM
CDK4/CCND3
  IC50: > 250 nM

## CS(=O)(=O)c1ccc(Nc2cc3c(C#Cc4cc(F)cc(C#N)c4)nccc3cn2)cc1 [Ex 571, 3-fluoro-5-((7-((4-(methylsulfonyl)phenyl)amino)-2,6-naphthyridin-1-yl)ethynyl)benzonitrile]
CDK2/CCNE1; [1]
  IC50: 25 to 250 nM
CDK1/CCNB1
  IC50: > 250 nM
CDK6/CCND1
  IC50: > 250 nM
CDK4/CCND3
  IC50: > 250 nM

## CS(=O)(=O)c1ccc(Nc2cc3c(C#Cc4ccncc4N)nccc3cn2)cc1 [Ex 572, 5-((3-aminopyridin-4-yl)ethynyl)-N-(4-(methylsulfonyl)phenyl)-2,6-naphthyridin-3-amine]
CDK2/CCNE1; [2]
  IC50: < 25 nM
CDK1/CCNB1
  IC50: > 250 nM
CDK6/CCND1
  IC50: > 250 nM
CDK4/CCND3
  IC50: > 250 nM

## CS(=O)(=O)c1ccc(Nc2cc3c(C#Cc4n[nH]c5ccccc45)nccc3cn2)cc1 [Ex 573, 5-((1H-indazol-3-yl)ethynyl)-N-(4-(methylsulfonyl)phenyl)-2,6-naphthyridin-3-amine]
CDK2/CCNE1; [1]
  IC50: 25 to 250 nM
CDK1/CCNB1
  IC50: > 250 nM
CDK6/CCND1
  IC50: > 250 nM
CDK4/CCND3
  IC50: > 250 nM

## CS(=O)(=O)c1ccc(Nc2cc3c(C#Cc4cnc5cc[nH]c5c4)nccc3cn2)cc1 [Ex 574, 5-((1H-pyrrolo[3,2-b]pyridin-6-yl)ethynyl)-N-(4-(methylsulfonyl)phenyl)-2,6-naphthyridin-3-amine]
CDK2/CCNE1; [2]
  IC50: < 25 nM
CDK1/CCNB1
  IC50: > 250 nM
CDK6/CCND1
  IC50: > 250 nM
CDK4/CCND3
  IC50: > 250 nM

## CS(=O)(=O)c1ccc(Nc2cc3c(C#Cc4cncc(Cl)c4N)nccc3cn2)cc1 [Ex 575, 5-((4-amino-5-chloropyridin-3-yl)ethynyl)-N-(4-(methylsulfonyl)phenyl)-2,6-naphthyridin-3-amine]
CDK2/CCNE1; [1]
  IC50: 25 to 250 nM
CDK1/CCNB1
  IC50: > 250 nM
CDK6/CCND1
  IC50: > 250 nM
CDK4/CCND3
  IC50: > 250 nM

## CS(=O)(=O)c1ccc(Nc2cc3c(C#Cc4c(N)cccc4Cl)nccc3cn2)cc1 [Ex 576, 5-((2-amino-6-chlorophenyl)ethynyl)-N-(4-(methylsulfonyl)phenyl)-2,6-naphthyridin-3-amine]
CDK2/CCNE1; [1]
  IC50: 25 to 250 nM
CDK1/CCNB1
  IC50: > 250 nM
CDK6/CCND1
  IC50: > 250 nM
CDK4/CCND3
  IC50: > 250 nM

## CS(=O)(=O)c1ccc(Nc2cc3c(C#Cc4cnc5ccc(Cl)nn45)nccc3cn2)cc1 [Ex 578, 5-((6-chloroimidazo[1,2-b]pyridazin-3-yl)ethynyl)-N-(4-(methylsulfonyl)phenyl)-2,6-naphthyridin-3-amine]
CDK2/CCNE1; [1]
  IC50: 25 to 250 nM
CDK1/CCNB1
  IC50: > 250 nM
CDK6/CCND1
  IC50: > 250 nM
CDK4/CCND3
  IC50: > 250 nM

## COc1ncccc1C#Cc1nccc2cnc(Nc3ccc(S(C)(=O)=O)cc3)cc12 [Ex 579, 5-((2-methoxypyridin-3-yl)ethynyl)-N-(4-(methylsulfonyl)phenyl)-2,6-naphthyridin-3-amine]
CDK2/CCNE1; [1]
  IC50: 25 to 250 nM
CDK1/CCNB1
  IC50: > 250 nM
CDK6/CCND1
  IC50: > 250 nM
CDK4/CCND3
  IC50: > 250 nM

## CS(=O)(=O)c1ccc(Nc2cc3c(C#Cc4ccnc(N)c4Cl)nccc3cn2)cc1 [Ex 580, 5-((2-amino-3-chloropyridin-4-yl)ethynyl)-N-(4-(methylsulfonyl)phenyl)-2,6-naphthyridin-3-amine]
CDK2/CCNE1; [2]
  IC50: < 25 nM
CDK1/CCNB1
  IC50: > 250 nM
CDK6/CCND1
  IC50: > 250 nM
CDK4/CCND3
  IC50: > 250 nM
